Laboratory results as given in PubChem BioAssay AID248 (DTP/NCI, 2004).
Where “and” joins values, the source holds several entries; their conditions need not be identical. Equal entries are not always repeated. Toxic doses and inconclusive results are not listed. No stated cut-off is given here; in the data, active means T/C of 150% or more; inactive means T/C below 125%.

Tested on: L1210 leukemia ip in BDF1 mice, survival T/C
Assay: NCI In Vivo Anticancer Drug Screen. Data for tumor model L1210 Leukemia (intraperitoneal) in B6D2F1 (BDF1) mice
Details: endpoint: mean survival time, higher = longer survival
Method in brief: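 Tumor was transplanted into mice, which were then dosed with test compound or vehicle alone. Survival was recorded for each group, and the treated figure was expressed relative to the control figure.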

[1] = dose: 100.0 mg/kg/injection, schedule: Q01DX001 (ip), vehicle: saline with Tween-80
[2] = dose: 200.0 mg/kg/injection, schedule: Q01DX001 (ip), vehicle: saline with Tween-80
[3] = dose: 400.0 mg/kg/injection, schedule: Q01DX001 (ip), vehicle: saline with Tween-80
[4] = dose: 100.0 mg/kg/injection, schedule: Q01DX009 (ip), vehicle: saline with Tween-80
[5] = dose: 100.0 mg/kg/injection, schedule: Q04DX003 (ip), vehicle: saline with Tween-80
[6] = dose: 200.0 mg/kg/injection, schedule: Q01DX009 (ip), vehicle: saline with Tween-80
[7] = dose: 200.0 mg/kg/injection, schedule: Q04DX003 (ip), vehicle: saline with Tween-80
[8] = dose: 400.0 mg/kg/injection, schedule: Q01DX009 (ip), vehicle: saline with Tween-80
[9] = dose: 400.0 mg/kg/injection, schedule: Q04DX003 (ip), vehicle: saline with Tween-80
[10] = dose: 100.0 mg/kg/injection, schedule: Q01DX001 (ip), vehicle: saline
[11] = dose: 200.0 mg/kg/injection, schedule: Q01DX001 (ip), vehicle: saline
[12] = dose: 400.0 mg/kg/injection, schedule: Q01DX001 (ip), vehicle: saline
[13] = dose: 100.0 mg/kg/injection, schedule: Q01DX009 (ip), vehicle: Klucel (hydroxypropylcellulose) (HPC)
[14] = dose: 100.0 mg/kg/injection, schedule: Q04DX003 (ip), vehicle: Klucel (hydroxypropylcellulose) (HPC)
[15] = dose: 200.0 mg/kg/injection, schedule: Q01DX009 (ip), vehicle: Klucel (hydroxypropylcellulose) (HPC)
[16] = dose: 200.0 mg/kg/injection, schedule: Q04DX003 (ip), vehicle: Klucel (hydroxypropylcellulose) (HPC)
[17] = dose: 400.0 mg/kg/injection, schedule: Q01DX009 (ip), vehicle: Klucel (hydroxypropylcellulose) (HPC)
[18] = dose: 400.0 mg/kg/injection, schedule: Q04DX003 (ip), vehicle: Klucel (hydroxypropylcellulose) (HPC)
[19] = dose: 50.0 mg/kg/injection, schedule: Q01DX001 (ip), vehicle: carboxymethylcellulose (CMC)

Measured: T/C

CCc1c2cc3c(cc2cc2c4cc5c(cc4cc[n+]12)OCO5)OCO3 (tested in a mixture with another compound)
inactive: dose: 3.13 mg/kg/injection, schedule: Q01DX009 (ip), vehicle: Klucel (hydroxypropylcellulose) (HPC) 122 % of control | dose: 3.13 mg/kg/injection, schedule: Q04DX003 (ip), vehicle: Klucel (hydroxypropylcellulose) (HPC) 113 % of control | dose: 6.25 mg/kg/injection, schedule: Q01DX009 (ip), vehicle: Klucel (hydroxypropylcellulose) (HPC) 110 % of control | dose: 6.25 mg/kg/injection, schedule: Q04DX003 (ip), vehicle: Klucel (hydroxypropylcellulose) (HPC) 110 % of control | dose: 12.5 mg/kg/injection, schedule: Q04DX003 (ip), vehicle: Klucel (hydroxypropylcellulose) (HPC) 113 % of control and 115 % of control

O=[N+]([O-])c1cc(S(=O)(=O)O)cc([N+](=O)[O-])c1Cl
inactive: dose: 75.0 mg/kg/injection, schedule: Q01DX001 (ip), vehicle: saline 112 % of control | dose: 150.0 mg/kg/injection, schedule: Q01DX001 (ip), vehicle: saline 109 % of control | dose: 300.0 mg/kg/injection, schedule: Q01DX001 (ip), vehicle: saline 113 % of control

O=C(CS(=O)(=O)O)Nc1ccccc1
inactive: [1] 94 % of control | [2] 97 % of control | [3] 100 % of control

C=Cn1nnnc1N
inactive: [1] 100 % of control | [2] 93 % of control | [3] 98 % of control

CCCCOP(=O)(OCCCC)Oc1c(Cl)c(Cl)c(Cl)c(Cl)c1Cl
inactive: dose: 100.0 mg/kg/injection, schedule: Q04DX002 (sc), vehicle: olive oil, sesame oil, peanut oil 107 % of control | dose: 200.0 mg/kg/injection, schedule: Q04DX002 (sc), vehicle: olive oil, sesame oil, peanut oil 100 % of control | dose: 400.0 mg/kg/injection, schedule: Q04DX002 (sc), vehicle: olive oil, sesame oil, peanut oil 104 % of control

C(=N\Nc1nnn(Cc2ccccc2)n1)/c1ccccc1
inactive: [4] 95 % of control | [5] 110 % of control | [6] 102 % of control | [7] 102 % of control | [8] 93 % of control | [9] 90 % of control

CCOc1ccccc1NC(=O)c1cccc(F)c1
inactive: [4] 101 % of control | [6] 104 % of control | [8] 101 % of control

Cc1cccc2c1SCCC2=O
inactive: [10] 92 % of control | [11] 92 % of control | [12] 89 % of control

CCCCC(CC)COC(=O)C[N+](C)(C)CCOC(c1ccccc1)c1ccccc1 (centres undefined)
inactive: dose: 6.25 mg/kg/injection, schedule: Q04DX003 (ip), vehicle: saline with Tween-80 91 % of control | dose: 12.5 mg/kg/injection, schedule: Q04DX003 (ip), vehicle: saline with Tween-80 97 % of control

C/C=C/C(=O)NCC(=O)O
inactive: [10] 90 % of control | [11] 97 % of control | [12] 103 % of control

CCN(CC)CCOc1ccc(C(=O)/C(=C/c2ccc3c(c2)OCO3)c2ccccc2)cc1
inactive: dose: 100.0 mg/kg/injection, schedule: Q04DX003 (sc), vehicle: olive oil, sesame oil, peanut oil 103 % of control | dose: 200.0 mg/kg/injection, schedule: Q04DX003 (sc), vehicle: olive oil, sesame oil, peanut oil 97 % of control | dose: 400.0 mg/kg/injection, schedule: Q04DX003 (sc), vehicle: olive oil, sesame oil, peanut oil 100 % of control

O=C(/C=C(/c1ccccc1)P(=O)(c1ccccc1)c1ccccc1)c1ccccc1
inactive: [4] 86 % of control | [6] 89 % of control | [8] 88 % of control

COc1ccc(CN(CCOC(=O)c2ccc(OC)cc2)CCN(CCOC(=O)c2ccc(OC)cc2)Cc2ccc(OC)cc2)cc1
inactive: dose: 12.5 mg/kg/injection, schedule: Q01DX009 (ip), vehicle: other 91 % of control | dose: 25.0 mg/kg/injection, schedule: Q01DX009 (ip), vehicle: other 86 % of control | dose: 25.0 mg/kg/injection, schedule: Q01DX009 (ip), vehicle: water 88 % of control | dose: 50.0 mg/kg/injection, schedule: Q01DX009 (ip), vehicle: other 91 % of control | dose: 50.0 mg/kg/injection, schedule: Q01DX009 (ip), vehicle: water 93 % of control | dose: 100.0 mg/kg/injection, schedule: Q01DX009 (ip), vehicle: other 88 % of control | dose: 100.0 mg/kg/injection, schedule: Q01DX009 (ip), vehicle: water 87 % of control | dose: 200.0 mg/kg/injection, schedule: Q01DX009 (ip), vehicle: water 88 % of control | dose: 400.0 mg/kg/injection, schedule: Q01DX009 (ip), vehicle: water 92 % of control

O=[N+]([O-])c1ccccc1S(=O)(=O)N1CCN(S(=O)(=O)c2ccccc2[N+](=O)[O-])C1
inactive: [13] 90 % of control | [14] 96 % of control | [15] 93 % of control | [16] 96 % of control | [17] 93 % of control | [18] 100 % of control

CN(C)N=Nc1ccccc1C(=O)NN
inactive: dose: 18.75 mg/kg/injection, schedule: Q01DX009 (ip), vehicle: Klucel (hydroxypropylcellulose) (HPC) 94 % of control and 110 % of control | dose: 37.5 mg/kg/injection, schedule: Q01DX009 (ip), vehicle: Klucel (hydroxypropylcellulose) (HPC) 105 % of control and 107 % of control | [19] 101 % of control | dose: 75.0 mg/kg/injection, schedule: Q01DX009 (ip), vehicle: Klucel (hydroxypropylcellulose) (HPC) 100 % of control and 115 % of control | dose: 100.0 mg/kg/injection, schedule: Q01DX001 (ip), vehicle: carboxymethylcellulose (CMC) 101 % of control | dose: 150.0 mg/kg/injection, schedule: Q01DX009 (ip), vehicle: Klucel (hydroxypropylcellulose) (HPC) 107 % of control | dose: 200.0 mg/kg/injection, schedule: Q01DX001 (ip), vehicle: carboxymethylcellulose (CMC) 101 % of control

CC(=O)c1ccccc1Cc1cccc2c(Cl)cccc12
inactive: [14] 95 % of control | [16] 100 % of control | [18] 88 % of control

O=Cc1ccc(C=O)c(Cl)c1
inactive: dose: 100.0 mg/kg/injection, schedule: Q01DX009 (ip), vehicle: saline sonified 100 % of control | [14] 100 % of control | dose: 200.0 mg/kg/injection, schedule: Q01DX009 (ip), vehicle: saline sonified 87 % of control | [16] 95 % of control | dose: 400.0 mg/kg/injection, schedule: Q01DX009 (ip), vehicle: saline sonified 94 % of control | [18] 103 % of control

CC(=O)Nc1ccc(NC(=O)Nc2cccc(Cl)c2C)cc1
inactive: [13] 89 % of control | [15] 89 % of control | [17] 91 % of control

CCN(CC)Cc1ccccc1COC(=O)c1cccc(C)c1
inactive: dose: 50.0 mg/kg/injection, schedule: Q04DX002 (ip), vehicle: saline 93 % of control | dose: 100.0 mg/kg/injection, schedule: Q04DX002 (ip), vehicle: saline 90 % of control | dose: 200.0 mg/kg/injection, schedule: Q04DX002 (ip), vehicle: saline 93 % of control

O=[N+]([O-])c1ccc(N2CCCC2)c([N+](=O)[O-])c1
inactive: [13] 101 % of control | [14] 95 % of control | [15] 93 % of control | [16] 92 % of control | [17] 97 % of control | [18] 99 % of control

c1ccc2c(c1)ccc1c[n+]3c(ccc4ccccc43)cc12
inactive: dose: 25.0 mg/kg/injection, schedule: Q01DX001 (ip), vehicle: carboxymethylcellulose (CMC) 104 % of control | [19] 108 % of control

O=C(O)C12CCC(CC1)C1CCC2CC1
inactive: dose: 12.5 mg/kg/injection, schedule: Q04DX002 (ip), vehicle: Klucel (hydroxypropylcellulose) (HPC) 101 % of control | dose: 25.0 mg/kg/injection, schedule: Q04DX002 (ip), vehicle: Klucel (hydroxypropylcellulose) (HPC) 105 % of control | dose: 50.0 mg/kg/injection, schedule: Q04DX002 (ip), vehicle: Klucel (hydroxypropylcellulose) (HPC) 116 % of control

O=C(O)C(=S)Cc1cc(=O)[nH]c(=S)[nH]1
inactive: [5] 102 % of control | [7] 97 % of control | [9] 92 % of control

O=C(O)C(SSC(C(=O)O)(c1ccccc1)c1ccccc1)(c1ccccc1)c1ccccc1
inactive: [14] 106 % of control | [16] 102 % of control | [18] 88 % of control
